Results on 15 compounds are retold here after patent US9796733B2, “Imidazo-pyrazine derivatives useful as soluble guanylate cyclase activators” (Merck Sharp & Dohme Corp., priority 2014, dated 2017).

The subject of test [1] is Spontaneously hypertensive rats (SHR). The test can be described thus: Acute efficacy in spontaneously hypertensive rats (SHR): telemetry blood pressure lowering after a single oral dose. Type of test: in vivo, rat. In short, it runs like this: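 Male SHR carrying aortic telemetry implants (14-day recovery) received a single oral gavage of compound or vehicle (10% transcutol/20% Cremophor/70% water). Conscious blood pressure was sampled 30 s every 10 min and averaged hourly; change was taken against the prior-day vehicle baseline, reported as maximum peak SBP decrease at a given PO dose (mpk).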

The next test concerns the target T1, sGC α1/β1 heterodimer (Homo sapiens, UniProt Q02108+Q02153).
T1 construct: expressed in transfected cells; host or cells: CHO-K1 (clone #7, CHO-K1/sGC)
T1 sequence (Q02108 1-690): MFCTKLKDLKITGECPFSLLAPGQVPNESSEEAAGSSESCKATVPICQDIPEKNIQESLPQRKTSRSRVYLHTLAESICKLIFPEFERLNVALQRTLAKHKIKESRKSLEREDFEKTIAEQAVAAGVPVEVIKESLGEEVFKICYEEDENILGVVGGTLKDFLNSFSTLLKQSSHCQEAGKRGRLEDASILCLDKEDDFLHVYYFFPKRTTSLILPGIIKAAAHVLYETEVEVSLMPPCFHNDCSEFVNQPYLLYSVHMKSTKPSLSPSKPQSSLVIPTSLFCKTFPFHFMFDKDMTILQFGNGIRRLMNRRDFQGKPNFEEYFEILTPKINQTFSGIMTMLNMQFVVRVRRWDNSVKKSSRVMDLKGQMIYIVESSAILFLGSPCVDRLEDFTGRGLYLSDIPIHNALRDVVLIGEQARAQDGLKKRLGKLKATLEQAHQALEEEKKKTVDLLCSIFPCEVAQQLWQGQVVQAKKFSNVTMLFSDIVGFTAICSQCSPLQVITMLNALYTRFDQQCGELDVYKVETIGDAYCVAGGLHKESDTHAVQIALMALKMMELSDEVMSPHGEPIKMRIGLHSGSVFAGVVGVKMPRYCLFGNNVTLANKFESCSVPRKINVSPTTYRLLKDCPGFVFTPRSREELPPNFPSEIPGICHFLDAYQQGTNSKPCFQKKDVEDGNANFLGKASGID
T1 sequence (Q02153 1-619): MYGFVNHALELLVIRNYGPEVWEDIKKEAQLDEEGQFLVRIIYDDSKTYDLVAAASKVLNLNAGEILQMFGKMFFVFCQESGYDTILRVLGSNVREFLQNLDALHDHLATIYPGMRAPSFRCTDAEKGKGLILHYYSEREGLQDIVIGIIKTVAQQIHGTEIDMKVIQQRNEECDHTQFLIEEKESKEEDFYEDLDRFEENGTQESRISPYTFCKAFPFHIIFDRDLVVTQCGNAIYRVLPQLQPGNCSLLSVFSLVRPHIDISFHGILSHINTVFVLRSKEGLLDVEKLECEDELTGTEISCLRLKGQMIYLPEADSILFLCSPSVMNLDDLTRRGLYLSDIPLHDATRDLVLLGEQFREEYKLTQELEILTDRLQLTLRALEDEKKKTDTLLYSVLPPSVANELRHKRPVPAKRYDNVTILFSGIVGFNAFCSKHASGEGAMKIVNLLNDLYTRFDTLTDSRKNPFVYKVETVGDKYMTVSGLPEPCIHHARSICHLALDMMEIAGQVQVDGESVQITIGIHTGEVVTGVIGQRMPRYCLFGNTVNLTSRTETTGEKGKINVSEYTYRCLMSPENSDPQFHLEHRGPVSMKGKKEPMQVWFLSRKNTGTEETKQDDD
The test can be described thus: Cell-based sGC functional assay (CASA assay): cGMP generation in CHO-K1/sGC cells, HTRF detection. Conditions: for Emax: CHO-K1, percent activation relative to standard Compound A in CHO-K1/sGC cells, read-out: % Act.; for EC50: inflection point (IP) of cGMP generation in CHO-K1/sGC cells, 4P fit, activity expressed as percentage of Compound A. In short, it runs like this:
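Stable CHO-K1/sGC cells in EBSS buffer with 5 mM MgCl2, 0.05% BSA and 0.5 mM IBMX were incubated with compound (2.5% DMSO final) ±1 μM DETA-NO for 1 hr at 37° C. cGMP was measured by HTRF. Activation is expressed as % of reference HDA Compound A maximum, with IP and max fold induction from a 4P fit.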

Take `CC1(C)C(=O)Nc2nc(-c3cn4ccnc4c(Cc4cccc(F)c4)n3)nc(N)c21` [Example 71, 4-amino-2-(8-(3-fluorobenzyl)imidazo[1,2-a]pyrazin-6-yl)-5,5-dimethyl-5H-pyrrolo[2,3-d]pyrimidin-6(7H)-one]: the “Maximum peak decrease of systolic blood pressure (SBP) in SHR, Cat.” value (“Maximum peak decrease” below) in test [1] (P.O. 1.0 mpk) is “C (Category C=SBP in SHRs>40 mmHg)”. At sGC α1/β1 heterodimer, the Emax amounted to 109% and the EC50 was 44 nM.

With `CCCc1ccc(C2(C)C(=O)Nc3nc(-c4cn5ccnc5c(CCC(F)(F)C(F)(F)F)n4)nc(N)c32)cn1` (stereo not drawn) [Example 250B, 4-amino-5-methyl-2-(8-(3,3,4,4,4-pentafluorobutyl)imidazo [1,2-a]pyrazin-6-yl)-5-(6-propylpyridin-3-yl)-5H-pyrrolo[2,3-d]pyrimidin-6(7H)-one], the “Maximum peak decrease” value in test [1] (P.O. 3.0 mpk) is reported as “A (Category A=SBP in SHRs<20 mmHg)”. In addition, on sGC α1/β1 heterodimer, the Emax stood at 87% and the EC50 amounted to 169 nM.

In the case of `CC1(c2ccc(Cl)cc2)C(=O)Nc2nc(-c3cn4ccnc4cn3)nc(NCCC(F)(F)C(F)(F)F)c21` (stereo not drawn) [Example 286A, 5-(4-chlorophenyl)-2-(imidazo[1,2-a]pyrazin-6-yl)-5-methyl-4-((3,3,4,4,4-pentafluorobutyl)amino)-5H-pyrrolo[2,3-d]pyrimidin-6(7H)-one], the “Maximum peak decrease” value in test [1] (P.O. 3.0 mpk) is reported as “A (Category A=SBP in SHRs<20 mmHg)”. Moreover, at sGC α1/β1 heterodimer, the Emax was found to be 83% and the EC50 was found to be 124 nM.

Turning to `Cc1cnc(C2(C3CC3)C(=O)Nc3nc(-c4cn5ccnc5c(CCC(F)(F)C(F)(F)F)n4)nc(N)c32)cn1` (single isomer, unassigned) [Example 342B, 4-amino-5-cyclopropyl-5-(5-methylpyrazin-2-yl)-2-(8-(3,3,4,4,4-pentafluorobutyl)imidazo[1,2-a]pyrazin-6-yl)-5H-pyrrolo[2,3-d]pyrimidin-6(7H)-one], in test [1] (P.O. 1.0 mpk), the “Maximum peak decrease” value is listed as “A (Category A=SBP in SHRs<20 mmHg)”. Further, at sGC α1/β1 heterodimer, the Emax was 177% and the EC50 was determined as 695 nM.

With `CCCc1nc(-c2nc(N)c3c(n2)NC(=O)C3(C)c2ccc(Cl)c(F)c2)cn2ccnc12` (stereo not drawn) [Example 124B, 4-amino-5-(4-chloro-3-fluorophenyl)-5-methyl-2-(8-propylimidazo[1,2-a]pyrazin-6-yl)-5H-pyrrolo[2,3-d]pyrimidin-6(7H)-one], the “Maximum peak decrease” value in test [1] (P.O. 0.3 mpk) is recorded as “B (Category B=SBP in SHRs 20-40 mmHg)”. At sGC α1/β1 heterodimer, the Emax was determined as 103% and the midpoint of the response, the EC50, lay at 34 nM.

Take `Nc1nc(-c2cn3ccnc3c(CCC(F)(F)C(F)(F)F)n2)nc2c1C(C(=O)NC1CC1)(C1CC1)C(=O)N2` (single isomer, unassigned) [Example 61A, 4-amino-N,5-dicyclopropyl-6-oxo-2-(8-(3,3,4,4,4-pentafluorobutyl)imidazo[1,2-a]pyrazin-6-yl)-6,7-dihydro-5H-pyrrolo[2,3-d]pyrimidine-5-carboxamide]: in test [1] (P.O. 3.0 mpk), the “Maximum peak decrease” value was “B (Category B=SBP in SHRs 20-40 mmHg)”. On sGC α1/β1 heterodimer, the Emax came out at 95% and the EC50 turned out to be 424 nM.

Turning to `CC1(c2ccc(F)cc2)C(=O)Nc2nc(-c3cn4ccnc4c(Cc4cccc(F)c4)n3)nc(N)c21` (single isomer, unassigned) [Example 90A, 4-amino-2-(8-(3-fluorobenzyl)imidazo[1,2-a]pyrazin-6-yl)-5-(4-fluorophenyl)-5-methyl-5H-pyrrolo[2,3-d]pyrimidin-6(7H)-one], the “Maximum peak decrease” value in test [1] (P.O. 0.3 mpk) was “C (Category C=SBP in SHRs>40 mmHg)”. Further, on sGC α1/β1 heterodimer, the Emax came to 122% and the response was half-maximal at 32 nM (EC50).

Turning to `Cc1cnc2c(CCC(F)(F)C(F)(F)F)nc(-c3nc(N)c4c(n3)NC(=O)C4(C)c3ccc(F)cn3)cn12` (stereo not drawn) [Example 173B, 4-amino-5-(5-fluoropyridin-2-yl)-5-methyl-2-(3-methyl-8-(3,3,4,4,4-pentafluorobutyl)imidazo [1,2-a]pyrazin-6-yl)-5H-pyrrolo[2,3-d]pyrimidin-6(7H)-one], the “Maximum peak decrease” value in test [1] (P.O. 1.0 mpk) was “B (Category B=SBP in SHRs 20-40 mmHg)”. On sGC α1/β1 heterodimer, the Emax is 92% and the EC50 amounted to 156 nM.

As for `CCCCc1nc(-c2nc(N)c3c(n2)NC(=O)C3(C)c2ccc(F)cn2)cn2ccnc12` (stereo not drawn) [Example 16B, 4-amino-2-(8-butylimidazo[1,2-a]pyrazin-6-yl)-5-(5-fluoropyridin-2-yl)-5-methyl-5H-pyrrolo[2,3-d]pyrimidin-6(7H)-one], the “Maximum peak decrease” value in test [1] (P.O. 0.3 mpk) is on record as “C (Category C=SBP in SHRs>40 mmHg)”. Further, at sGC α1/β1 heterodimer, the Emax is 117% and the EC50 is 134 nM.

On to `CC(C)CCc1nc(-c2nc(N)c3c(n2)NC(=O)C3(C)c2ccc(Cl)cc2)cn2ccnc12` (stereo not drawn) [Example 14A, 4-amino-5-(4-chlorophenyl)-2-(8-isopentylimidazo[1,2-a]pyrazin-6-yl)-5-methyl-5H-pyrrolo[2,3-d]pyrimidin-6(7H)-one], for which the “Maximum peak decrease” value in test [1] (P.O. 1.0 mpk) was “C (Category C=SBP in SHRs>40 mmHg)”. Besides, on sGC α1/β1 heterodimer, the Emax turned out to be 113% and a half-maximal effect (EC50) was put at 111 nM.

For the compound `CC1(c2ccc(F)cc2)C(=O)Nc2nc(-c3cn4c(Br)cnc4c(CCC(F)(F)F)n3)nc(N)c21` (stereo not drawn) [Example 264A, 4-amino-2-(3-bromo-8-(3,3,3-trifluoropropyl)imidazo[1,2-a]pyrazin-6-yl)-5-(4-fluorophenyl)-5-methyl-5H-pyrrolo[2,3-d]pyrimidin-6(7H)-one], the “Maximum peak decrease” value in test [1] (P.O. 1.0 mpk) is on record as “A (Category A=SBP in SHRs<20 mmHg)”. For the same compound, at sGC α1/β1 heterodimer, the Emax amounted to 123% and the EC50 worked out at 239 nM.

For `CC1(C)C(=O)Nc2nc(-c3cn4ccnc4c(Cc4ccccc4F)n3)nc(N)c21` [Example 70, 4-amino-2-(8-(2-fluorobenzyl)imidazo[1,2-a]pyrazin-6-yl)-5,5-dimethyl-5H-pyrrolo[2,3-d]pyrimidin-6(7H)-one], in test [1] (P.O. 0.3 mpk), the “Maximum peak decrease” value is “B (Category B=SBP in SHRs 20-40 mmHg)”. In addition, on sGC α1/β1 heterodimer, the Emax turned out to be 109% and the EC50 is 21 nM.

In the case of `CC1(c2cccc(F)c2)C(=O)Nc2nc(-c3cn4ccnc4c(CCC(F)(F)C(F)(F)F)n3)nc(N)c21` (stereo not drawn) [Example 231A, 4-amino-5-(3-fluorophenyl)-5-methyl-2-(8-(3,3,4,4,4-pentafluorobutyl)imidazo [1,2-a]pyrazin-6-yl)-5H-pyrrolo[2,3-d]pyrimidin-6(7H)-one], the “Maximum peak decrease” value in test [1] (P.O. 0.3 mpk) is “A (Category A=SBP in SHRs<20 mmHg)”. On sGC α1/β1 heterodimer, the Emax turned out to be 156% and the EC50 was determined as 50 nM.

With `CCCCc1nc(-c2nc(N)c3c(n2)NC(=O)C3(c2ccc(Cl)c(F)c2)C2CC2)cn2ccnc12` (stereo not drawn) [Example 329A, 4-amino-2-(8-butylimidazo[1,2-a]pyrazin-6-yl)-5-(4-chloro-3-fluorophenyl)-5-cyclopropyl-5H-pyrrolo[2,3-d]pyrimidin-6(7H)-one], the “Maximum peak decrease” value in test [1] (P.O. 0.3 mpk) is given as “B (Category B=SBP in SHRs 20-40 mmHg)”. Further, at sGC α1/β1 heterodimer, the Emax is 93% and the EC50 amounted to 16 nM.

Turning to `CC1(c2ccc(F)cc2)C(=O)Nc2nc(-c3cn4c(Br)cnc4c(CCC(F)(F)C(F)(F)F)n3)nc(N)c21` (stereo not drawn) [Example 254A, 4-amino-2-(3-bromo-8-(3,3,4,4,4-pentafluorobutyl)imidazo [1,2-a]pyrazin-6-yl)-5-(4-fluorophenyl)-5-methyl-5H-pyrrolo[2,3-d]pyrimidin-6(7H)-one], the “Maximum peak decrease” value in test [1] (P.O. 1.0 mpk) was “C (Category C=SBP in SHRs>40 mmHg)”. On sGC α1/β1 heterodimer, the Emax came out at 126% and the EC50 was 57 nM.
